According to PubChem BioAssay AID330 (DTP/NCI, 2004):
Several values for one entry are separate records, joined by “and”; a condition that tells them apart may be missing. Equal values may be shown once. Inconclusive results and toxic doses are left out.

System: P388 leukemia ip, CD2F1 mice, survival T/C
Experiment: NCI In Vivo Anticancer Drug Screen. Data for tumor model P388 Leukemia (intraperitoneal) in CD2F1 (CDF1) mice
Conditions: endpoint: median survival time, higher = longer survival
How it was run: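 Mice carrying the transplanted tumor received test compound or vehicle. Survival was recorded in each group, and the value is the treated-group measurement divided by that of the vehicle-treated control group.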

[1] = dose: 60.0 mg/kg/injection, schedule: Q01DX005 (ip), vehicle: saline with Tween-80

O=[N+]([O-])c1c[nH]n2c([N+](=O)[O-])cnc12
T/C (dose: 6.25 mg/kg/injection, schedule: Q01DX009 (ip), vehicle: other): 91 % of control | T/C (dose: 12.5 mg/kg/injection, schedule: Q01DX009 (ip), vehicle: other): 101 % of control

CCOC(=O)Cc1csc2nc(-c3ccccc3)cn12
T/C [1]: 115 % of control | T/C (dose: 120.0 mg/kg/injection, schedule: Q01DX005 (ip), vehicle: saline with Tween-80): 104 % of control | T/C (dose: 240.0 mg/kg/injection, schedule: Q01DX005 (ip), vehicle: saline with Tween-80): 106 % of control

CO[C@@H]1C2=CC=CC=C[C@H]2n2c(=O)n(C)c(=O)n21
T/C (dose: 50.0 mg/kg/injection, schedule: Q01DX005 (ip), vehicle: Klucel (hydroxypropylcellulose) (HPC)): 100 % of control | T/C (dose: 75.0 mg/kg/injection, schedule: Q01DX005 (ip), vehicle: other): 109 % of control | T/C (dose: 100.0 mg/kg/injection, schedule: Q01DX005 (ip), vehicle: Klucel (hydroxypropylcellulose) (HPC)): 98 % of control | T/C (dose: 150.0 mg/kg/injection, schedule: Q01DX005 (ip), vehicle: other): 115 % of control | T/C (dose: 200.0 mg/kg/injection, schedule: Q01DX005 (ip), vehicle: Klucel (hydroxypropylcellulose) (HPC)): 102 % of control | T/C (dose: 300.0 mg/kg/injection, schedule: Q01DX005 (ip), vehicle: other): 111 % of control

CCCCc1c(O)c(N=NC(=N)N)c2ccccc2c1O
T/C (dose: 50.0 mg/kg/injection, schedule: Q01DX005 (ip), vehicle: saline with Tween-80): 100 % of control | T/C (dose: 100.0 mg/kg/injection, schedule: Q01DX005 (ip), vehicle: saline with Tween-80): 101 % of control | T/C (dose: 200.0 mg/kg/injection, schedule: Q01DX005 (ip), vehicle: saline with Tween-80): 99 % of control

Brc1ccc(-c2cc(-c3cccs3)cc(-c3ccccc3)n2)cc1
T/C (dose: 50.0 mg/kg/injection, schedule: Q01DX009 (ip), vehicle: Klucel (hydroxypropylcellulose) (HPC)): 100 % of control | T/C (dose: 100.0 mg/kg/injection, schedule: Q01DX009 (ip), vehicle: Klucel (hydroxypropylcellulose) (HPC)): 108 % of control | T/C (dose: 200.0 mg/kg/injection, schedule: Q01DX009 (ip), vehicle: Klucel (hydroxypropylcellulose) (HPC)): 101 % of control

[O]=[Ge]=[O]
T/C (dose: 50.0 mg/kg/injection, schedule: Q01DX009 (ip), vehicle: saline): 111 % of control | T/C (dose: 100.0 mg/kg/injection, schedule: Q01DX009 (ip), vehicle: saline): 104 % of control | T/C (dose: 200.0 mg/kg/injection, schedule: Q01DX009 (ip), vehicle: saline): 111 % of control

Cc1c(O)c(=O)ccn1CCN
T/C (dose: 50.0 mg/kg/injection, schedule: Q01DX005 (ip), vehicle: saline): 98 % of control and 102 % of control | T/C (dose: 100.0 mg/kg/injection, schedule: Q01DX005 (ip), vehicle: saline): 100 % of control and 109 % of control | T/C (dose: 200.0 mg/kg/injection, schedule: Q01DX005 (ip), vehicle: saline): 99 % of control and 104 % of control | T/C (dose: 400.0 mg/kg/injection, schedule: Q01DX005 (ip), vehicle: saline): 91 % of control and 95 % of control

CCON1CCC(OC(=O)CC)(c2ccccc2)C(C)C1 (stereo not drawn)
T/C (dose: 100.0 mg/kg/injection, schedule: Q01DX001 (ip), vehicle: saline): 111 % of control | T/C (dose: 200.0 mg/kg/injection, schedule: Q01DX001 (ip), vehicle: saline): 98 % of control

CC1(C)CC2(C)OC(=O)c3ccccc3N2C(=S)N1 (stereo not drawn)
T/C (dose: 15.0 mg/kg/injection, schedule: Q01DX005 (ip), vehicle: saline with Tween-80): 94 % of control | T/C (dose: 30.0 mg/kg/injection, schedule: Q01DX005 (ip), vehicle: saline with Tween-80): 95 % of control | T/C [1]: 90 % of control and 96 % of control

CC(O)CN(CCN(CC(C)O)CC(C)O)CC(C)O.[Cl-].[Zn+2] (stereo not drawn)
T/C (dose: 12.5 mg/kg/injection, schedule: Q01DX009 (ip), vehicle: saline): 117 % of control | T/C (dose: 25.0 mg/kg/injection, schedule: Q01DX009 (ip), vehicle: saline): 122 % of control

N#Cc1nnc2cccc(Cl)n12
T/C (dose: 25.0 mg/kg/injection, schedule: Q01DX001 (ip), vehicle: Klucel (hydroxypropylcellulose) (HPC)): 96 % of control | T/C (dose: 50.0 mg/kg/injection, schedule: Q01DX001 (ip), vehicle: Klucel (hydroxypropylcellulose) (HPC)): 95 % of control | T/C (dose: 100.0 mg/kg/injection, schedule: Q01DX001 (ip), vehicle: Klucel (hydroxypropylcellulose) (HPC)): 97 % of control

COc1cc2c(c(OC)c1OC)-c1ccc(OC)c(=O)cc1[C@@H](NC(=O)CCl)CC2
T/C (dose: 0.06 mg/kg/injection, schedule: Q01DX009 (ip), vehicle: Klucel (hydroxypropylcellulose) (HPC)): 114 % of control | T/C (dose: 0.12 mg/kg/injection, schedule: Q01DX009 (ip), vehicle: saline with Tween-80): 166 % of control | T/C (dose: 0.13 mg/kg/injection, schedule: Q01DX009 (ip), vehicle: saline with Tween-80): 156 % of control | T/C (dose: 0.15 mg/kg/injection, schedule: Q01DX009 (ip), vehicle: saline): 103 % of control | T/C (dose: 0.25 mg/kg/injection, schedule: Q01DX009 (ip), vehicle: Klucel (hydroxypropylcellulose) (HPC)): 115 % of control | T/C (dose: 0.25 mg/kg/injection, schedule: Q01DX009 (ip), vehicle: saline with Tween-80): 153 % of control and 173 % of control | T/C (dose: 0.31 mg/kg/injection, schedule: Q01DX009 (ip), vehicle: saline): 122 % of control | T/C (dose: 0.5 mg/kg/injection, schedule: Q01DX009 (ip), vehicle: saline with Tween-80): 93 % of control | T/C (dose: 1.25 mg/kg/injection, schedule: Q01DX009 (ip), vehicle: saline): 167 % of control
